Blank lines part the entries; values can stand above or below the molecule they belong to. Residues, ends and D or L forms follow the SMILES beside them. *: point of attachment. Cbz = O=C(OCc1ccccc1)*; CH2F = FC*
Key:
recombinant PP5-His6 = biological target: T1, recombinant PP5-His6 (Homo sapiens, UniProt P53041); test: PP5 phosphatase activity and inhibition assay; type: biochemical; details: phospho-S211-GR peptide substrate
T1 sequence (P53041 1-499): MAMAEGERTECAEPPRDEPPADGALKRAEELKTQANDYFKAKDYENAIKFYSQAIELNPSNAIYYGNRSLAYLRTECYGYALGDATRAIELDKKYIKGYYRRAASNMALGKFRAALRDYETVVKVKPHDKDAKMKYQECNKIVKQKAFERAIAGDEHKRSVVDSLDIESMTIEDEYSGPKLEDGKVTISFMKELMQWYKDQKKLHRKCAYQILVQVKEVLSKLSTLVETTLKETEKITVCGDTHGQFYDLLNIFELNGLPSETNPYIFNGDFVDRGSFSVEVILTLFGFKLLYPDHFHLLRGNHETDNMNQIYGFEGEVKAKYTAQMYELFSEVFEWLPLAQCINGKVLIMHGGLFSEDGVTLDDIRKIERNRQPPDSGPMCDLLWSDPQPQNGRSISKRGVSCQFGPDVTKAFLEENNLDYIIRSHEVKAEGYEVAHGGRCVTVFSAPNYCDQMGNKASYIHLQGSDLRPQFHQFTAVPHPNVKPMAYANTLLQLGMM

786-O cells [1] = test: Cell viability / proliferation; type: cell-based, Human; details: varying doses, 48hrs
786-O cells [2] = test: Induction of apoptosis by immunoblotting of apoptotic markers; type: cell-based, Human
VHL-null ccRCC cells = test: Propidium iodide staining, cell death by flow cytometry; type: cell-based, Human; details: 30 or 40μM, A498 and 786-O versus Caki-1 and Caki-2; dose dependent
786-O cells [3] = test: Phosphorylation of S194-FADD by western blot; type: cell-based, Human; details: indicated amounts, 24hrs
A498 cells = test: Phosphorylation of S194-FADD by western blot; type: cell-based, Human; details: indicated amounts, 24hrs
[4] = system: VHL-null ccRCC cell lines; details: ref [2]; cited from earlier work
PP5 = details: ref [52]-[54]; cited from earlier work
PP1 = details: ref [52]-[54]; cited from earlier work
HEK293 cells = test: Hsp90 inhibition time course, protein levels by immunoblot; type: cell-based, Human; details: 2μM
PP5-FLAG = biological target: T2, PP5-FLAG (Homo sapiens, UniProt P53041); test: Biotin-P5 and biotin-P13 streptavidin pulldown from HEK293 lysate; type: binding; details: for binding to PP5-FLAG (co-pulldown): HEK293 lysate, 0.01-10μM biotinylated compound
T2 sequence (P53041 1-499): T1 sequence (P53041 1-499)

PP2A = test: Biotinylated compound pulldown from 786-O lysate, co-pulldown of PP2A; type: binding, Human; details: 1μM
[5] = biological target: T3, PP5-FLAG active site point mutants (Homo sapiens, UniProt P53041, R400A); test: Biotin-P13 streptavidin pulldown of PP5 active site point mutants; type: binding; details: R400A mutant
T3 sequence (P53041 2-499 R400A): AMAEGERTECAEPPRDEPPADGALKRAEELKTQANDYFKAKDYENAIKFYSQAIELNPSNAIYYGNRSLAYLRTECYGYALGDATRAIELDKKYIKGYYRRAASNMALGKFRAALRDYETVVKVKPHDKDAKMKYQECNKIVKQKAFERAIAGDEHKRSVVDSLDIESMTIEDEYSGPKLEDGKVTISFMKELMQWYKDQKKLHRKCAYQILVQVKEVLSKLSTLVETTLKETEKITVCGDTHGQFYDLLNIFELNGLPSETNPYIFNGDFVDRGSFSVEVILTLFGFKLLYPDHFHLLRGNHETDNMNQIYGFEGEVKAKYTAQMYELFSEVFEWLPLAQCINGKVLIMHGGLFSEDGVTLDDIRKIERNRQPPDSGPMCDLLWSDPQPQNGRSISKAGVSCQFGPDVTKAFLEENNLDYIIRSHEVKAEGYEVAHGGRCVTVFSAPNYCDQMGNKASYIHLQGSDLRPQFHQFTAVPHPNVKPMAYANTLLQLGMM

[6] = system: PP5-FLAG active site point mutants; test: as above; type: binding, Human

mode of PP5 inhibition (enzyme kinetics, Lineweaver-Burk plot) (recombinant PP5-His6): competitive inhibitors
Structure (SMILES): COC(=O)c1cccc(NS(=O)(=O)c2c(C)noc2C)c1 [Compound P5, Methyl m-(3,5-dimethyl-4-isoxazolylsulfonylamino)benzoate]
proliferation of 786-O cells (MTT) (786-O cells [1]): significantly inhibited the proliferation | cleavage of apoptotic markers (immunoblot) (786-O cells [2]; 10μM, 24hrs): cleavage of the apoptotic markers caspase 3 and 8 and PARP

mode of PP5 inhibition (enzyme kinetics, Lineweaver-Burk plot) (recombinant PP5-His6): competitive inhibitors
Structure (SMILES): Cc1ccc(NS(=O)(=O)c2c(C)noc2C)cc1C [Compound P13, (3,5-Dimethyl-4-isoxazolylsulfonyl)(3,4-xylyl)amine]
proliferation of 786-O cells (MTT) (786-O cells [1]): significantly inhibited the proliferation | cleavage of apoptotic markers (immunoblot) (786-O cells [2]; 10μM, 24hrs): cleavage of the apoptotic markers caspase 3 and 8 and PARP

Structure (SMILES): Cc1noc(C)c1S(=O)(=O)Nc1ccc(Cc2ccccc2)cc1 [Compound P053, (3,5-Dimethyl-4-isoxazolylsulfonyl)(p-benzylphenyl)amine]
cleavage of caspase 3 and PARP (786-O cells [2]; 10μM, 24hrs): increased cleavage of the executioner caspase 3 | cleavage of caspase 8 and caspase 9 (extrinsic versus intrinsic apoptosis) (786-O cells [2]; 10μM, 24hrs): cleavage of caspase 8 but not caspase 9 | induction of apoptosis (cleaved PARP, cleaved caspase 8) (786-O cells [2]; 10μM, 24hrs): ability to induce apoptosis | cell death (PI stained cells) (VHL-null ccRCC cells): selectively caused cell death

Structure (SMILES): CCCCN(c1ccc(Oc2ccccc2)cc1)S(=O)(=O)c1c(C)noc1C [Compound P058, N-Butyl(3,5-dimethyl-4-isoxazolylsulfonyl)(p-phenoxyphenyl)amine]
induction of apoptosis (cleaved PARP, cleaved caspase 8) (786-O cells [2]; 10μM, 24hrs): ability to induce apoptosis

Structure (SMILES): Cc1noc(C)c1S(=O)(=O)N(CCCCl)c1ccc(Oc2ccccc2)cc1 [Compound P059, (3-Chloropropyl)(3,5-dimethyl-4-isoxazolylsulfonyl)(p-phenoxyphenyl)amine]
induction of apoptosis (cleaved PARP, cleaved caspase 8) (786-O cells [2]; 10μM, 24hrs): ability to induce apoptosis

Structure (SMILES): Cc1noc(C)c1S(=O)(=O)N(CCCC#N)c1ccc(Oc2ccccc2)cc1 [Compound P075, 4-[(3,5-Dimethyl-4-isoxazolylsulfonyl)(p-phenoxyphenyl)amino]butyronitrile]
induction of apoptosis (cleaved PARP, cleaved caspase 8) (786-O cells [2]; 10μM, 24hrs): ability to induce apoptosis

Structure (SMILES): COc1cc(OC)c(C=C2C(O)=Nc3ccccc32)c(OC)c1 [IC261]
induction of extrinsic apoptosis (apoptotic markers) (786-O cells [2]; indicated amounts, 16hrs): induced extrinsic apoptosis in a dose-dependent manner | S194-FADD phosphorylation (786-O cells [3]): increase in S194-FADD phosphorylation | S194-FADD phosphorylation (A498 cells): increase in S194-FADD phosphorylation | PP5 activity [4]: decreased PP5 activity | apoptosis [4]: induced apoptosis

Structure (SMILES): CN1CCN(C(=O)C2C(C(=O)O)[C@H]3CC[C@@H]2O3)CC1 (some centres unmarked) [LB-100]
inhibition of PP5 (PP5): inhibit PP5 and PP1 | inhibition of PP1 (PP1): inhibit PP5 and PP1

Structure (SMILES): CC1(C)CC(=O)c2c(C(F)(F)F)nn(-c3ccc(C(N)=O)c(N[C@H]4CC[C@H](O)CC4)c3)c2C1 [SNX-2112]
RIPK1 protein levels (HEK293 cells; 16 hr): decreased RIPK1 protein levels | FADD protein levels (HEK293 cells; throughout the time course): did not observe a decrease in FADD levels | Hsp90 clients Tsc2, Akt and phos-Ser473-Akt protein levels (HEK293 cells; time course): destabilized and degraded

binding to PP5-FLAG (co-pulldown) (PP5-FLAG): binds | binding to PP2A (co-pulldown) (PP2A): did not bind to PP2A
Structure (SMILES): Cc1noc(C)c1S(=O)(=O)Nc1cccc(C(=O)N2CCN(C(=O)CCC[C@@H]3SC[C@@H]4NC(=O)N[C@@H]43)CC2)c1 [biotin-P5, N-[3-(4-(4-[(3aS,4S,6aR)-2-Oxo-hexahydro-1H-thieno[3,4-d]imidazol-4-yl]butanoyl)piperazine-1-carbonyl)phenyl]-3,5-dimethyl-1,2-oxazole-4-sulfonamide]

binding to PP5-FLAG relative to biotin-P5 (PP5-FLAG; 10μM): bound more | binding to PP5-FLAG (co-pulldown) (PP5-FLAG): binds | binding of PP5 mutant to biotinylated compound compared to WT PP5 [5]: reduced binding | binding of PP5 mutants to biotinylated compound ([6]; H304Q, M309C and W386F mutants): unable to bind | binding of PP5 mutants to biotinylated compound compared to WT PP5 ([6]; R275A and Y451F mutants): increased binding | binding to PP2A (co-pulldown) (PP2A): did not bind to PP2A
Structure (SMILES): Cc1ccc(N(CCCNC(=O)CCC[C@@H]2SC[C@@H]3NC(=O)N[C@@H]32)S(=O)(=O)c2c(C)noc2C)cc1C [biotin-P13, 4-[(3aS,4S,6aR)-2-Oxo-hexahydro-1H-thieno[3,4-d]imidazol-4-yl]-N-(3-[N-(3,4-dimethylphenyl)3,5-dimethyl-1,2-oxazole-4-sulfonamido]propyl}butanamide]

Structure (SMILES): COC(=O)C[C@H](NC(=O)[C@H](C)NC(=O)[C@@H](NC(=O)OCc1ccccc1)C(C)C)C(=O)CF [z-VAD-fmk, reference compound] (Cbz-Val-Ala-Asp(OMe)-CH2F)
effect on IC261-induced extrinsic apoptosis (786-O cells [2]; 10μM for 1hr, then IC261 for 16hrs): reversed this effect
